Reference: US8366933B2, “Method for bacterial treatment of effluents containing 2-ethylhexyl nitrate” (Commissariat a l'Energie Atomique, priority 2007, dated 2013)

How the values were obtained:
zebrafish = details: acute toxicity; cited from earlier work
[1] = cited from earlier work
Daphnia = details: acute toxicity; cited from earlier work
[2] = system: C. urealyticum CIP-I-2126 strain; assay: 2-EHN degradation with a non-biodegradable hydrophobic liquid phase (respirometer); type: cell-based, Corynebacterium urealyticum; details: per flask containing 500 mL medium at 500 mg/L 2-EHN
Description: The capacity for degradation of 2-EHN by the C. urealyticum CIP-I-2126 strain in the presence of a non-biodegradable hydrophobic liquid phase used as a substrate reservoir is studied. The cultures were carried out at 30° C. with a respirometer so as to determine the kinetic characteristics of the biodegradation.
Two non-biodegradable liquid phases were tested: 2,2,4,4,6,8,8-heptamethylnonane (HMN) and silicone oil (Table 3).

[3] = cited from earlier work; remark: listed apart in the source

CCCCC(CC)CO[N+](=O)[O-] (stereo not shown) [2-EHN, 2-ethylhexyl nitrate]
LC50 (50% lethal concentrations) (zebrafish): higher than its water solubility | Solubility at 20° C. [1]: 12.6 µg/mL | LC50 (50% lethal concentrations) (Daphnia): higher than its water solubility | MAXIMUM DEGRADATION RATE (MMOLO2/J) ([2]; liquid phase added: HMN): 5.3 MMOLO2/J | MAXIMUM DEGRADATION RATE (MMOLO2/J) ([2]; liquid phase added: Silicone oil): 5.8 MMOLO2/J | MAXIMUM DEGRADATION RATE (MMOLO2/J) ([2]; liquid phase added: none): 0.3 MMOLO2/J | Vapour pressure at 20° C. [3]: 27 Pa
